Measured values taken from PMC5452050 (ACS Omega, 2017).
In brackets after ≈: the same amount, converted by molar mass.

Tests used:
MV4-11 cells = experiment: MV4-11 cell proliferation; type: cell-based; settings: for EC50: Homo sapiens, MV4-11, 72 h, read-out: MV4-11 EC50
[1] = target: T1, recombinant human FLT3 (571–993) (Homo sapiens, UniProt P36888); experiment: biochemical; type: biochemical; settings: for IC50: FLT3 IC50, FLT3^WT enzyme, 500 μM ATP
T1 sequence (P36888 571-993): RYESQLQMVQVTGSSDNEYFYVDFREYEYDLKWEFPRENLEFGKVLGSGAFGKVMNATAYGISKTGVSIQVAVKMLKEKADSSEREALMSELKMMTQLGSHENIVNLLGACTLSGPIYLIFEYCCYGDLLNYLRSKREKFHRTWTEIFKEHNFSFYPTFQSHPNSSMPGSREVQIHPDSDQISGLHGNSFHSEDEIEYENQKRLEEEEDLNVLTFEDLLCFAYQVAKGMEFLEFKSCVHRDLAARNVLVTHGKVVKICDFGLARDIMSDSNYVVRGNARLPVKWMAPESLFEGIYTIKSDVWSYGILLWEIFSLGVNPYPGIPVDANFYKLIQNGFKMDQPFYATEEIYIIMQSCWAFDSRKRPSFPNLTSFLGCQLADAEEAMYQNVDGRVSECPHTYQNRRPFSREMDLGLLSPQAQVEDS

MOLM13^FLT3-ITD cells = experiment: MOLM13 cell viability; type: cell-based; settings: Homo sapiens, MOLM-13, 72 h, read-out: MOLM13^FLT3-ITD IC50
[2] = tested on: MOLM13^FLT3-ITD/D835Y cells; experiment: MOLM13 cell viability; type: cell-based; settings: Homo sapiens, MOLM-13, 72 h, read-out: MOLM13^FLT3-ITD/D835Y IC50
FLT3-ITD phosphorylation = experiment: Western blot of FLT3 signaling in MOLM13^FLT3-ITD cells; type: cell-based; settings: 1 h, read-out: FLT3 IC50 estimated from loss of FLT3-ITD phosphorylation
Solubility = type: physicochemical; settings: buffer, pH 7.4, aqueous buffer, kinetic from dmso stock
Plasma stability [3] = type: in vitro ADME; settings: mouse
Plasma stability [4] = type: in vitro ADME; settings: rat
Plasma stability [5] = type: in vitro ADME; settings: human
[6] = Liver microsomal stability; settings: female, CD-1, mouse, liver microsomes, pH 7.4
[7] = Liver microsomal stability; settings: rat, liver microsomes, pH 7.4
[8] = Liver microsomal stability; settings: dog, liver microsomes, pH 7.4
[9] = Liver microsomal stability; settings: both, human, liver microsomes, pH 7.4
BJ cells = experiment: BJ fibroblast proliferation; type: cell-based; settings: Homo sapiens, 72 h, read-out: BJ EC50, 72 h

**Q.** With CC(C)(C)Nc1ccnc(Nc2cccc(-c3cccnc3)c2)n1 [Compound 5f, N^4-(tert-Butyl)-N^2-(3-(pyridin-3-yl)phenyl)pyrimidine-2,4-diamine] as the compound, how does the “fold improvement in MV4-11 growth inhibition relative to 1” value (MV4-11 cells) read?
**A.** approximately 10 fold

**Q.** Which “fold improvement in MV4-11 growth inhibition relative to 1” value (MV4-11 cells) does the source give for CC[C@H](C)Nc1ccnc(Nc2cccc(-c3cccnc3)c2)n1 [Compound 5j, (S)-N^4-(sec-Butyl)-N^2-(3-(pyridin-3-yl)phenyl)pyrimidine-2,4-diamine] here?
**A.** approximately 10 fold

**Q.** For CC[C@@H](C)Nc1ccnc(Nc2cccc(-c3cccnc3)c2)n1 [Compound 5k, (R)-N^4-(sec-Butyl)-N^2-(3-(pyridin-3-yl)phenyl)pyrimidine-2,4-diamine], which “fold improvement in MV4-11 growth inhibition relative to 1” value (MV4-11 cells) is on record?
**A.** approximately 10 fold

**Q.** With c1cncc(-c2cccc(Nc3nccc(NC4CCNCC4)n3)c2)c1 [Compound 5q, N^4-(Piperidin-4-yl)-N^2-(3-(pyridin-3-yl)phenyl)pyrimidine-2,4-diamine] as the compound, how does the “fold more potent than 1 against FLT3” value [1] read?
**A.** approximately 4 fold

**Q.** With CC(C)Nc1ccnc(Nc2cccc(-c3cnccn3)c2)n1 [Compound 6k, N^4-Isopropyl-N^2-(3-(pyrazin-2-yl)phenyl)pyrimidine-2,4-diamine] as the compound, how does the IC50 (MOLM13^FLT3-ITD cells) read?
**A.** 45 nM

**Q.** And the IC50 [2]?
**A.** 77 nM

**Q.** And the IC50 (FLT3-ITD phosphorylation)?
**A.** 50 to 100 nM

**Q.** And the solubility at 18 h (Solubility)?
**A.** 56.9 ± 1.9 µM (≈ 17.4 µg/mL)

**Q.** And the plasma stability (Plasma stability [3])?
**A.** >50 h

**Q.** What about the plasma stability (Plasma stability [4]) of the same compound?
**A.** >50 h

**Q.** And the plasma stability (Plasma stability [5])?
**A.** >50 h

**Q.** What about the CLint scaled at 4 µM [6] of the same compound?
**A.** 485 mL/min/kg

**Q.** What about the half-life at 4 µM [6] of the same compound?
**A.** 7.08 ± 0.18 min

**Q.** And the CLint scaled at 4 µM [7]?
**A.** 122 mL/min/kg

**Q.** And the half-life at 4 µM [7]?
**A.** 22.8 ± 0.6 min

**Q.** And the CLint scaled at 4 µM [8]?
**A.** 37 mL/min/kg

**Q.** And the half-life at 4 µM [8]?
**A.** 54 ± 1.2 min

**Q.** What about the CLint scaled at 4 µM [9] of the same compound?
**A.** 14.2 mL/min/kg

**Q.** What about the half-life at 4 µM [9] of the same compound?
**A.** 87.6 ± 6 min

**Q.** For c1cncc(-c2cccc(Nc3cccc(NC4CCCCC4)n3)c2)c1 [Compound 9, N^2-Cyclohexyl-N^6-(3-(pyridin-3-yl)phenyl)pyridine-2,6-diamine], which IC50 [1] is on record?
**A.** 80 nM

**Q.** What about the EC50 (MV4-11 cells) of the same compound?
**A.** > 10000 nM

**Q.** What about the EC50 (BJ cells) of the same compound?
**A.** > 10000 nM

**Q.** For c1cncc(-c2cccc(Nc3cc(NC4CCCCC4)ccn3)c2)c1 [Compound 13, N^4-cyclohexyl-N^2-(3-(pyridin-3-yl)phenyl)pyridine-2,4-diamine], which IC50 [1] is on record?
**A.** 1500 nM

**Q.** What about the EC50 (MV4-11 cells) of the same compound?
**A.** > 16000 nM

**Q.** And the EC50 (BJ cells)?
**A.** 10600 nM

**Q.** Which IC50 [1] does the source give for c1cncc(-c2cccc(Nc3ccnc(NC4CCCCC4)c3)c2)c1 [Compound 14, N^2-Cyclohexyl-N^4-(3-(pyridin-3-yl)phenyl)pyridine-2,4-diamine] here?
**A.** 141 nM

**Q.** What about the EC50 (MV4-11 cells) of the same compound?
**A.** > 8000 nM

**Q.** And the EC50 (BJ cells)?
**A.** 8740 nM

**Q.** For CN(c1ccnc(Nc2cccc(-c3cccnc3)c2)n1)C1CCCCC1 [Compound 16, N^4-Cyclohexyl-N^4-methyl-N^2-(3-(pyridin-3-yl)phenyl)pyrimidine-2,4-diamine], which IC50 [1] is on record?
**A.** 82 nM

**Q.** And the EC50 (MV4-11 cells)?
**A.** > 8000 nM

**Q.** With CN(c1cccc(-c2cccnc2)c1)c1nccc(N(C)C2CCCCC2)n1 [Compound 17, N^4-Cyclohexyl-N^2,N^4-dimethyl-N^2-(3-(pyridin-3-yl)phenyl)pyrimidine-2,4-diamine] as the compound, how does the IC50 [1] read?
**A.** > 15000 nM

**Q.** And the EC50 (MV4-11 cells)?
**A.** 39 nM

**Q.** With c1cncc(-c2cccc(Nc3nccc(OC4CCCCC4)n3)c2)c1 [Compound 19, 4-(Cyclohexyloxy)-N-(3-(pyridin-3-yl)phenyl)pyrimidin-2-amine] as the compound, how does the IC50 [1] read?
**A.** 187 nM

**Q.** What about the EC50 (MV4-11 cells) of the same compound?
**A.** > 6000 nM

**Q.** With c1cncc(-c2cccc(Oc3nccc(OC4CCCCC4)n3)c2)c1 [Compound 20, 4-(Cyclohexyloxy)-2-(3-(pyridin-3-yl)phenoxy)pyrimidine] as the compound, how does the IC50 [1] read?
**A.** 49 nM

**Q.** And the EC50 (MV4-11 cells)?
**A.** > 13000 nM

**Q.** For CN(c1cccc(-c2cccnc2)c1)c1nccc(NC2CCCCC2)n1 [Compound 21, N^4-Cyclohexyl-N^2-methyl-N^2-(3-(pyridin-3-yl)phenyl)pyrimidine-2,4-diamine], which IC50 [1] is on record?
**A.** > 11000 nM

**Q.** And the EC50 (MV4-11 cells)?
**A.** > 4000 nM

**Q.** For c1cncc(-c2cccc(Oc3nccc(NC4CCCCC4)n3)c2)c1 [Compound 22, N-Cyclohexyl-2-(3-(pyridin-3-yl)phenoxy)pyrimidin-4-amine], which “fold reduction of FLT3 enzymatic activity compared to 1” value [1] is on record?
**A.** ~40 fold

**Q.** And the IC50 [1]?
**A.** 1260 nM

**Q.** What about the EC50 (MV4-11 cells) of the same compound?
**A.** > 14000 nM

**Q.** With CC(C)(C)c1cc(NC(=O)Nc2ccc(-c3cn4c(n3)sc3cc(OCCN5CCOCC5)ccc34)cc2)no1 [quizartinib, reference compound] as the compound, how does the EC50 (MV4-11 cells) read?
**A.** 0.7 nM

**Q.** What about the EC50 (BJ cells) of the same compound?
**A.** > 22000 nM
